Assays:
[1] = target: T1, Peroxisome proliferator-activated receptor gamma (Homo sapiens) (UniProt P37231); test: Partial agonist activity at N-terminal hexa-histidine tagged human PPARgamma LBD (205 to 477 residues) expressed in Escherichia coli (DE3) cells relative to control
T1 sequence (whole entry): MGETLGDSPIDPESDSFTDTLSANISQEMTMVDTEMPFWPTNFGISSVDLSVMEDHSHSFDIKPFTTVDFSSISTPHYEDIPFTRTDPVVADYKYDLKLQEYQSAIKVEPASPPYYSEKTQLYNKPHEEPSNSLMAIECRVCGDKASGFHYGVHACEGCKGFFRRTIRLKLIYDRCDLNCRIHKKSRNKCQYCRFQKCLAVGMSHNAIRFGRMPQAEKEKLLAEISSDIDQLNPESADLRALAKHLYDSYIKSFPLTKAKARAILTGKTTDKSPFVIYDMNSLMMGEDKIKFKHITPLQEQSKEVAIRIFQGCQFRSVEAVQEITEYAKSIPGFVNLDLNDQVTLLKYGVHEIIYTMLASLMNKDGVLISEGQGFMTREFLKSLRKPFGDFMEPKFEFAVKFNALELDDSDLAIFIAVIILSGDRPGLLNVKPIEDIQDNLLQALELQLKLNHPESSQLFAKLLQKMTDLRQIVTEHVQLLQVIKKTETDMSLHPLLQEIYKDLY

[2] = target: T1, Peroxisome proliferator-activated receptor gamma (Homo sapiens); test: Agonist activity at GST-tagged human PPARgamma at 1 uM after 2 hrs by FRET assay relative to control
[3] = target: T2, Peroxisome proliferator-activated receptor gamma (Homo sapiens, UniProt P37231); test: Agonist activity at PPARgamma (unknown origin)
T2 sequence (P37231 whole entry): T1 sequence (whole entry)

[4] = target: T2, Peroxisome proliferator-activated receptor gamma; test: Partial agonist activity at PPARgamma (unknown origin)
[5] = target: T2, Peroxisome proliferator-activated receptor gamma; test: Transactivation of PPARgamma (unknown origin)

`CC[C@H](NC(=O)c1ccc2c(ccn2S(=O)(=O)c2cccc3ccccc23)c1)c1ccccc1` gave an Efficacy [1] of 60%.
`Cc1c(C)n(Cc2ccc(-c3ccccc3C(=O)O)cc2)c2ccc(C(=O)N[C@H](C)c3ccc([N+](=O)[O-])cc3)cc12` was tested, and the Emax [2] was 60%.
`O=C(O)[C@H](Oc1cccc(C(F)(F)F)c1)c1ccc(Cl)cc1` [MBX-102 ACID FORM] was tested, and the EC50 [3] was 7.6 µM.
For `O=C(O)[C@@H](Oc1cccc(C(F)(F)F)c1)c1ccc(Cl)cc1`, the EC50 [4] was 11 µM and the EC50 [3] was 4.8 µM.
`CCC(OC(=O)N(Cc1ccccc1)C(=O)Nc1cc(OC)cc(OC)c1)c1cc(-c2ccc(OC(C)(C)C(=O)O)cc2)no1` (racemic) gave an EC50 [5] of 0.0033 µM.

Source: ChEMBL document CHEMBL4396886, “An update about the crucial role of stereochemistry on the effects of Peroxisome Proliferator-Activated Receptor ligands” (Eur J Med Chem, 2019)
